As usually defined, the IC50 is the concentration needed to halve the response being measured. Read a high IC50 as weaker potency in that assay.

The target in assay [1] is human PCSK9 / human LDLR EGFa domain interaction (Homo sapiens, UniProt Q8NBP7). Kind of assay: TR-FRET assay of inhibition of the PCSK9-LDLR protein-protein interaction. Type of assay: binding. The conditions noted are these: 20 nM avitag-biotinylated human PCSK9, 20 nM his-tagged human LDLR EGFa domain, 2 hours, room temperature. A digest of the protocol: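 20 nM biotin-avitag PCSK9 + 20 nM His-LDLR EGFa; 5 nM Ulight-SA / 5 nM Eu-anti-His; 2 h RT; HEPES 50 mM, NaCl 150 mM, CaCl2 5 mM, 0.01% BSA, 0.01% P20. Half-maximal inhibition, 4-parameter fit.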
(In general: In TR-FRET formats the signal depends on donor and acceptor labels being close together.)

Another assay has as its target PCSK9 (Homo sapiens, UniProt Q8NBP7). Kind of assay: PCSK9 Alexa FRET Standard assay (displacement of AlexaFluor647 tagged cyclic peptide Reagent A). The conditions noted are these: 0.5 nM PCSK9, 20 nM AF cyclic peptide Reagent A. The assay is classed as binding. The procedure:
A solution containing 1 nM biotinylated PCSK9+2.5 nM Lance Streptavidin Europium (Strep-Eu) was made in 50 mM HEPES pH 7.4, 0.15 M NaCl, 5 mM CaCl2), 0.01% BSA, and 0.01% Surfactant P20. A separate solution containing 40 nM of the AlexaFluor tagged cyclic peptide was made in the same buffer system. An Echo was used to transfer 0.750 ul of compound to an assay plate followed by the addition of 15 ul of PCSK9+Stept-Eu and 15 ul of AF peptide. The final assay volume was 30.750 ul containing 0.5 nM PCSK9, 1.25 nM Strep-Eu, and 20 nM AF cyclic peptide. The reaction was incubated at room temperature for at least two hours prior to fluorescence measurements using an Envision Multilabel Reader. IC50 values were determined by fitting data to a sigmoidal dose-response curve using nonlinear regression. Ki was then calculated from the IC50 and the KD of AF cyclic peptide. Counts (B-counts) of the europium-labeled PCSK9 were followed to observe if compounds were […]. A fall off of the B-counts likely indicated a false positive of inhibition. Data from this procedure was reported as “A=‘numerical value’ (nanomolar)”

Numbered stars: 1 amine (or outer) side, 2 acyl side, 3 side chain; on linkers, the order of the positions; unused ones are H or OH. Bridge positions count the residues as written; N and C are the ends. Square brackets hold non-standard residues; d marks the D form. Peptide text beside a SMILES is read from it. * marks the point of attachment. X6 = CC(=O)Oc1ccc2c(c1)CN([*:1])[C@H](C(=O)[*:2])C2; Trp(7-aza) = N[C@@H](Cc1c[nH]c2ncccc12)C(=O)O; X5 = O=C([C@H](Cc1cnco1)N[*:1])[*:2]; mXylylene = c1cc(C[*:1])cc(C[*:2])c1; 4Pal = N[C@@H](Cc1ccncc1)C(=O)O; Aad = N[C@@H](CCCC(=O)O)C(=O)O; Tle = CC(C)(C)[C@H](N)C(=O)O; αMeV = CC(C)[C@](C)(N)C(=O)O; Dpg = CCCC(N)(CCC)C(=O)O; Iva = CC[C@](C)(N)C(=O)O; Ac5c = NC1(C(=O)O)CCCC1; Nva = CCC[C@H](N)C(=O)O; Thp = NC1(C(=O)O)CCOCC1; Ac4c = NC1(C(=O)O)CCC1; Ac3c = NC1(C(=O)O)CC1; Aib = CC(C)(N)C(=O)O; Ms = CS(=O)(=O)*; Mpa = O=C(O)CCS

human PCSK9 / human LDLR EGFa domain interaction, sequence (Q8NBP7 153-692): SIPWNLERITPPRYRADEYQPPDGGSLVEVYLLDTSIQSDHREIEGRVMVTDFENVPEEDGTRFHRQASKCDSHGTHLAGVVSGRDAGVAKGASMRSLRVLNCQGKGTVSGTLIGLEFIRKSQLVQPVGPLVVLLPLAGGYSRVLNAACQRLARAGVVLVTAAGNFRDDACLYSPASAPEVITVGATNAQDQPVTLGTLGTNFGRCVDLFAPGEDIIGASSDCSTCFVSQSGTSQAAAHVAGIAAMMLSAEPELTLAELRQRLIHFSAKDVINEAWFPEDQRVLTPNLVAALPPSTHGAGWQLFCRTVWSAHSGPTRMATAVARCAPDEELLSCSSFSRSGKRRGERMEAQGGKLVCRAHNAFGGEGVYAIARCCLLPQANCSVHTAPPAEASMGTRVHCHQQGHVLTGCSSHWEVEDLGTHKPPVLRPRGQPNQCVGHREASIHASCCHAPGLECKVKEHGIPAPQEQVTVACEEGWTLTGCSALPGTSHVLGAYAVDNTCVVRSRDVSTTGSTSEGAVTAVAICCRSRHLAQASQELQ
human PCSK9 / human LDLR EGFa domain interaction, sequence (Q8NBP7 31-152 partner limits assumed): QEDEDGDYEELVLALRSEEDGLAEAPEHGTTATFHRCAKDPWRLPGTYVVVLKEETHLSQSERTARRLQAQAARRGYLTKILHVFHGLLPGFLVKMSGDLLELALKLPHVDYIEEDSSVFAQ
PCSK9, sequence (Q8NBP7 153-692): as the sequence (Q8NBP7 153-692) above

Turning to `CCC[C@@H]1NC(=O)[C@H](Cc2c[nH]c3ncccc23)NC(=O)[C@H]([C@@H](C)O)NC(=O)[C@@H]2CCCN2C(=O)[C@H](Cc2ccc(O)cc2)NC(=O)[C@H](C(C)(C)C)NC(=O)[C@@H](NC(C)=O)CCCC(=O)NCCCC[C@@H](C(N)=O)NC(=O)[C@H]([C@@H](C)O)NC(=O)[C@H](CCC)NC(=O)[C@@H]2Cc3ccc(OC(C)=O)cc3CN2C(=O)[C@H](C)NC1=O` [Compound 074] (Ac-[Aad][Tle]YPT[Trp(7-aza)][Nva]A[X6][Nva]TK-NH2; lactam 1-12), the IC50 (in assay [1]; on PCSK9) was 0.1 to 1 µM in each case.
For `CCC[C@@H]1NC(=O)[C@H](Cc2c[nH]c3ncccc23)NC(=O)[C@H]([C@@H](C)O)NC(=O)[C@H](Cc2cnco2)NC(=O)[C@H](Cc2ccc(O)cc2)NC(=O)[C@H](C(C)(C)C)NC(=O)CCSCc2cccc(c2)CSC[C@@H](C(N)=O)NC(=O)[C@H]([C@@H](C)O)NC(=O)[C@H](CCC)NC(=O)[C@H](Cc2ccc(O)cc2)NC(=O)[C@H](CCC(=O)O)NC1=O` [Compound 106] ([Mpa][Tle]Y[X5]T[Trp(7-aza)][Nva]EY[Nva]TC-NH2; linker 1-12 via mXylylene), the IC50 in assay [1] lay in the range of 0.1 to 1 µM; on PCSK9, 1 to 21 µM.
As for `CCC[C@@H]1NC(=O)[C@H](Cc2c[nH]c3ncccc23)NC(=O)[C@H]([C@@H](C)O)NC(=O)[C@H](Cc2ccncc2)NC(=O)[C@H](Cc2ccc(O)cc2)NC(=O)[C@H](C(C)(C)C)NC(=O)CCSCc2cccc(c2)CSC[C@@H](C(N)=O)NC(=O)[C@H]([C@@H](C)O)NC(=O)[C@H](CCC)NC(=O)[C@H](Cc2ccc(O)cc2)NC(=O)[C@H](CCC(=O)O)NC1=O` [Compound 112] ([Mpa][Tle]Y[4Pal]T[Trp(7-aza)][Nva]EY[Nva]TC-NH2; linker 1-12 via mXylylene), the IC50 (in assay [1]; on PCSK9) was 0.1 to 1 µM throughout.
As to `CCC[C@@H]1NC(=O)[C@H](Cc2c[nH]c3ncccc23)NC(=O)[C@H]([C@@H](C)O)NC(=O)[C@@H]2CCCN2C(=O)[C@H](Cc2ccc(O)cc2)NC(=O)[C@H](C(C)(C)C)NC(=O)CCSCc2cccc(c2)CSC[C@@H](C(N)=O)NC(=O)[C@H]([C@@H](C)O)NC(=O)[C@H](CCC)NC(=O)[C@H](Cc2ccc(O)cc2)NC(=O)[C@H](CCC(=O)O)NC1=O` [Compound 155] ([Mpa][Tle]YPT[Trp(7-aza)][Nva]EY[Nva]TC-NH2; linker 1-12 via mXylylene), the IC50 (in assay [1]; on PCSK9) was 1 to 21 µM each time.
For the compound `CC(=O)N[C@H]1CSCc2cccc(c2)CSC[C@@H](C(N)=O)NC(=O)[C@H]([C@@H](C)O)NC(=O)C(C)(C)NC(=O)[C@H](Cc2ccc(O)cc2)NC(=O)[C@H](C)NC(=O)C(C)(C)NC(=O)[C@H](Cc2c[nH]c3ncccc23)NC(=O)[C@H]([C@@H](C)O)NC(=O)[C@@H]2CCCN2C(=O)[C@H](Cc2ccc(O)cc2)NC(=O)[C@H](C(C)(C)C)NC1=O` [Compound 179] (Ac-C[Tle]YPT[Trp(7-aza)][Aib]AY[Aib]TC-NH2; linker 1-12 via mXylylene), the IC50 in assay [1] was 21 to 50 µM; at PCSK9, 1 to 21 µM.
On to `CC(=O)N[C@H]1CSCc2cccc(c2)CSC[C@@H](C(N)=O)NC(=O)[C@H]([C@@H](C)O)NC(=O)[C@](C)(C(C)C)NC(=O)[C@H](Cc2ccc(O)cc2)NC(=O)[C@H](C)NC(=O)C2(CCOCC2)NC(=O)[C@H](Cc2c[nH]c3ncccc23)NC(=O)[C@H]([C@@H](C)O)NC(=O)[C@@H]2CCCN2C(=O)[C@H](Cc2ccc(O)cc2)NC(=O)[C@H](C(C)(C)C)NC1=O` [Compound 181] (Ac-C[Tle]YPT[Trp(7-aza)][Thp]AY[αMeV]TC-NH2; linker 1-12 via mXylylene), for which the IC50 lay in the range of 21 to 50 µM in assay [1] and 1 to 21 µM at PCSK9.
With `CC[C@]1(C)NC(=O)[C@H](Cc2c[nH]c3ncccc23)NC(=O)[C@H]([C@@H](C)O)NC(=O)[C@@H]2CCCN2C(=O)[C@H](Cc2ccc(O)cc2)NC(=O)[C@H](C(C)(C)C)NC(=O)[C@@H](NC(C)=O)CSCc2cccc(c2)CSC[C@@H](C(N)=O)NC(=O)[C@H]([C@@H](C)O)NC(=O)[C@](C)(C(C)C)NC(=O)[C@H](Cc2ccc(O)cc2)NC(=O)[C@H](C)NC1=O` [Compound 182] (Ac-C[Tle]YPT[Trp(7-aza)][Iva]AY[αMeV]TC-NH2; linker 1-12 via mXylylene), the IC50 in assay [1] lay in the range of 21 to 50 µM; on PCSK9 it was 1 to 21 µM.
For the compound `CC(=O)N[C@H]1CSCc2cccc(c2)CSC[C@@H](C(N)=O)NC(=O)[C@H]([C@@H](C)O)NC(=O)[C@](C)(C(C)C)NC(=O)[C@H](Cc2ccc(O)cc2)NC(=O)[C@H](C)NC(=O)C2(CCC2)NC(=O)[C@H](Cc2c[nH]c3ncccc23)NC(=O)[C@H]([C@@H](C)O)NC(=O)[C@@H]2CCCN2C(=O)[C@H](Cc2ccc(O)cc2)NC(=O)[C@H](C(C)(C)C)NC1=O` [Compound 183] (Ac-C[Tle]YPT[Trp(7-aza)][Ac4c]AY[αMeV]TC-NH2; linker 1-12 via mXylylene), the IC50 in assay [1] is 21 to 50 µM; on PCSK9, 1 to 21 µM.
Consider `CC(=O)N[C@H]1CSCc2cccc(c2)CSC[C@@H](C(N)=O)NC(=O)[C@H]([C@@H](C)O)NC(=O)[C@](C)(C(C)C)NC(=O)[C@H](Cc2ccc(O)cc2)NC(=O)[C@H](C)NC(=O)C2(CCCC2)NC(=O)[C@H](Cc2c[nH]c3ncccc23)NC(=O)[C@H]([C@@H](C)O)NC(=O)[C@@H]2CCCN2C(=O)[C@H](Cc2ccc(O)cc2)NC(=O)[C@H](C(C)(C)C)NC1=O` [Compound 184] (Ac-C[Tle]YPT[Trp(7-aza)][Ac5c]AY[αMeV]TC-NH2; linker 1-12 via mXylylene), for which the IC50 in assay [1] was in the range of 0.1 to 1 µM; at PCSK9 it was 0.001 to 0.1 µM.
Taken in the same sequence, the figures for `CC(=O)N[C@H]1CSCc2cccc(c2)CSC[C@H](C(N)=O)NC(=O)[C@H]([C@@H](C)O)NC(=O)[C@](C)(C(C)C)NC(=O)[C@H](Cc2ccc(O)cc2)NC(=O)[C@H](C)NC(=O)C2(CCC2)NC(=O)[C@H](Cc2c[nH]c3ncccc23)NC(=O)[C@H]([C@@H](C)O)NC(=O)[C@@H]2CCCN2C(=O)[C@H](Cc2ccc(O)cc2)NC(=O)[C@H](C(C)(C)C)NC1=O` [Compound 185] (Ac-C[Tle]YPT[Trp(7-aza)][Ac4c]AY[αMeV]T[dC]-NH2; linker 1-12 via mXylylene) were 0.001 to 0.1 µM and 0.001 to 0.1 µM.
Consider `CC(=O)N[C@H]1CSCc2cccc(c2)CSC[C@H](C(N)=O)NC(=O)[C@H]([C@@H](C)O)NC(=O)[C@](C)(C(C)C)NC(=O)[C@H](Cc2ccc(O)cc2)NC(=O)[C@H](C)NC(=O)C2(CCCC2)NC(=O)[C@H](Cc2c[nH]c3ncccc23)NC(=O)[C@H]([C@@H](C)O)NC(=O)[C@@H]2CCCN2C(=O)[C@H](Cc2ccc(O)cc2)NC(=O)[C@H](C(C)(C)C)NC1=O` [Compound 186] (Ac-C[Tle]YPT[Trp(7-aza)][Ac5c]AY[αMeV]T[dC]-NH2; linker 1-12 via mXylylene), for which the IC50 (in assay [1]; at PCSK9) was 0.001 to 0.1 µM each time.
Take `CCCC1(CCC)NC(=O)[C@H](Cc2c[nH]c3ncccc23)NC(=O)[C@H]([C@@H](C)O)NC(=O)[C@@H]2CCCN2C(=O)[C@H](Cc2ccc(O)cc2)NC(=O)[C@H](C(C)(C)C)NC(=O)[C@@H](NC(C)=O)CSCc2cccc(c2)CSC[C@H](C(N)=O)NC(=O)[C@H]([C@@H](C)O)NC(=O)[C@](C)(C(C)C)NC(=O)[C@H](Cc2ccc(O)cc2)NC(=O)[C@H](C)NC1=O` [Compound 188] (Ac-C[Tle]YPT[Trp(7-aza)][Dpg]AY[αMeV]T[dC]-NH2; linker 1-12 via mXylylene): the IC50 (in assay [1]; on PCSK9) was 1 to 21 µM each time.
On to `CNC(=O)[C@H]1CSCc2cccc(c2)CSC[C@H](NC(C)=O)C(=O)N[C@@H](C(C)(C)C)C(=O)N[C@@H](Cc2ccc(O)cc2)C(=O)N2CCC[C@H]2C(=O)N[C@@H]([C@@H](C)O)C(=O)N[C@@H](Cc2c[nH]c3ncccc23)C(=O)NC(C)(C)C(=O)N[C@@H](C)C(=O)N[C@@H](Cc2ccc(O)cc2)C(=O)N[C@@](C)(C(C)C)C(=O)N[C@@H]([C@@H](C)O)C(=O)N1` [Compound 189] (Ac-C[Tle]YPT[Trp(7-aza)][Aib]AY[αMeV]T[dC]-NHMe; linker 1-12 via mXylylene), for which the IC50 lay in the range of 21 to 50 µM in assay [1] and 1 to 21 µM on PCSK9.
As for `CC(=O)N[C@H]1CSCc2cccc(c2)CSC[C@H](C(N)=O)NC(=O)[C@H]([C@@H](C)O)NC(=O)[C@](C)(C(C)C)NC(=O)[C@H](Cc2ccc(O)cc2)NC(=O)[C@H](C)NC(=O)C2(CC2)NC(=O)[C@H](Cc2c[nH]c3ncccc23)NC(=O)[C@H]([C@@H](C)O)NC(=O)[C@@H]2CCCN2C(=O)[C@H](Cc2ccc(O)cc2)NC(=O)[C@H](C(C)(C)C)NC1=O` [Compound 191] (Ac-C[Tle]YPT[Trp(7-aza)][Ac3c]AY[αMeV]T[dC]-NH2; linker 1-12 via mXylylene), the IC50 (in assay [1]; at PCSK9) was 0.001 to 0.1 µM in each case.
`CC(C)[C@]1(C)NC(=O)[C@H](Cc2ccc(O)cc2)NC(=O)[C@H](C)NC(=O)C2(CCC2)NC(=O)[C@H](Cc2c[nH]c3ncccc23)NC(=O)[C@H]([C@@H](C)O)NC(=O)[C@@H]2CCCN2C(=O)[C@H](Cc2ccc(O)cc2)NC(=O)[C@H](C(C)(C)C)NC(=O)[C@@H](NS(C)(=O)=O)CSCc2cccc(c2)CSC[C@H](C(N)=O)NC(=O)[C@H]([C@@H](C)O)NC1=O` [Compound 192] (Ms-C[Tle]YPT[Trp(7-aza)][Ac4c]AY[αMeV]T[dC]-NH2; linker 1-12 via mXylylene): the IC50 (in assay [1]; at PCSK9) was 0.001 to 0.1 µM in each case.

The values are drawn from patent US11814444B2, “Cyclic polypeptides for PCSK9 inhibition” (Ra Pharmaceuticals, Inc., priority 2018, dated 2023).
